How the values were obtained:
[1] = biological target: TRP-M8 (Homo sapiens, UniProt Q7Z2W7); conditions: cited from earlier work
[2] = tested on: skin; conditions: in vivo; cited from earlier work
[3] = tested on: oropharynx (back of the mouth); experiment: Bioassay: compound applied by glass rod onto the posterior dorsal tongue, oral sensations noted; type: in vivo, human; conditions: for sensation from the oral cavity: 2 mg on the posterior third of the tongue; for cooling qualities: in vivo
Experimental: CPS-004 and CPS-030 are liquids at room temperatures. These compounds were tested by placing 0, 2, 5 and 8 mg on a 6-inch glass rod and applying these compounds onto the posterior third of the dorsal surface of the tongue. After depositing the test substance, the subject was instructed to keep the mouth closed and allow the test substance to distribute to the back of the mouth (orpharynx). The presence and duration of sensations from the oral cavity was then noted.

TRP-M8, sequence (Q7Z2W7 whole entry, species assumed): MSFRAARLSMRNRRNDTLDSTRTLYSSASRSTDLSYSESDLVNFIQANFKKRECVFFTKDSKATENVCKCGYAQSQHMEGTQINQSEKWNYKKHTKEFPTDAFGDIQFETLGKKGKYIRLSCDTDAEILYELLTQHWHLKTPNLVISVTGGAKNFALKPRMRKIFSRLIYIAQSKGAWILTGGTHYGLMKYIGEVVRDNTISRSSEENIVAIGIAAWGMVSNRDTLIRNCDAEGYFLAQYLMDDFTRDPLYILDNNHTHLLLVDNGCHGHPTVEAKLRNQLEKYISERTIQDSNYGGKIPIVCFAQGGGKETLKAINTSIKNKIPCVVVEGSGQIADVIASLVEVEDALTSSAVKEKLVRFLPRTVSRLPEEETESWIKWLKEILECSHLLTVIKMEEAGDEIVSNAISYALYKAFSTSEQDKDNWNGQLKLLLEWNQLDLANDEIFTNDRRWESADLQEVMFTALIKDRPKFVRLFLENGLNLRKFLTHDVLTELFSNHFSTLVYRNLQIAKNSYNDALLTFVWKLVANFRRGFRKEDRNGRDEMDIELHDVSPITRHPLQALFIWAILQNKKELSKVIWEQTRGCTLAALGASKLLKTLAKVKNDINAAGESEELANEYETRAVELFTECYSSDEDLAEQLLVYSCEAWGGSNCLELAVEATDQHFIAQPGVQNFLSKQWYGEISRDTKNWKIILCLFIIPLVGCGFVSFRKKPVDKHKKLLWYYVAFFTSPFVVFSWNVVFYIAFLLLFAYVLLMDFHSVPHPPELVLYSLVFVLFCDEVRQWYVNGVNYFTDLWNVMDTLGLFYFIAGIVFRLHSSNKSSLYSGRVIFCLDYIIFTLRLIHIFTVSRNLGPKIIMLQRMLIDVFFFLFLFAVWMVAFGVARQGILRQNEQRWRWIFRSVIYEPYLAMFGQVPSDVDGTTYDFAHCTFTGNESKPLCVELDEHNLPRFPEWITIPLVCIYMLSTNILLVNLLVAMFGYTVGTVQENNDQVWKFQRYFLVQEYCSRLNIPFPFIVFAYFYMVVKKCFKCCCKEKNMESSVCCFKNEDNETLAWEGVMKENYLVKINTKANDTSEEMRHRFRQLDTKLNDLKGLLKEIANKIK

SMILES	potency on TRP-M8 relative to menthol [1]	cooling action on the skin [2]	sensation from the oral cavity [3]	cooling qualities [3]	taste ([3]; applied onto the tongue)
COc1ccc(NC(=O)[C@@H]2C[C@H](C)CC[C@H]2C(C)C)cc1 [WS-12]	2000 times	does not produce very much cooling action on the skin			
CC(C)[C@@H]1CC[C@@H](C)C[C@H]1C(=O)OCCO [CPS-004]			cooling effect on the back of the mouth	good cooling qualities	
CC(C)[C@@H]1CC[C@@H](C)C[C@H]1C(=O)OCC(O)CO (stereo partly shown) [CPS-030]			cooling effect on the back of the mouth	good cooling qualities	acrid taste which was objectionable

From US20100292325A1, “P-MENTHAWE-3-CARBOXYLIC ACID ESTERS TO TREAT AIRWAYS DISEASES” (priority 2007, published 2010)
